From patent US10710994B2, “Oxadiazole transient receptor potential channel inhibitors” (Genentech, Inc., priority 2018, dated 2020)
Where two headings read alike, the source gives them in different places.

Target: human TRPA1 channel (Homo sapiens (Human), UniProt O75762)
Experiment: hTRPA1 CHO Ca2+ FLIPR Tetra assay: block of cinnamaldehyde induced calcium influx
Assay type: cell-based
Conditions: CHO cells expressing TRPA1, Hill coefficient fixed to 1.5
Summary of the method: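 TRPA1-expressing CHO cells loaded with calcium indicator dye (1 h 37° C, then 15 min room temperature) in HBSS/20 mM HEPES pH 7.4/0.02% BSA. IC50 from fits with fixed Hill coefficient.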

[1] = hTRPA1 IC50 90 min, 90 minutes incubation with compound before cinnamaldehyde (about EC80)
[2] = read-out: hTRPA1 IC50 10 min, 10 minutes incubation with compound before cinnamaldehyde (about EC80)
[3] = read-out: hTRPA1 IC50 90 min, 90 minutes incubation with compound before cinnamaldehyde (about EC80)
[4] = hTRPA1 IC50 10 min, 10 minutes incubation with compound before cinnamaldehyde (about EC80)

Sequence of human TRPA1 channel (O75762 whole entry): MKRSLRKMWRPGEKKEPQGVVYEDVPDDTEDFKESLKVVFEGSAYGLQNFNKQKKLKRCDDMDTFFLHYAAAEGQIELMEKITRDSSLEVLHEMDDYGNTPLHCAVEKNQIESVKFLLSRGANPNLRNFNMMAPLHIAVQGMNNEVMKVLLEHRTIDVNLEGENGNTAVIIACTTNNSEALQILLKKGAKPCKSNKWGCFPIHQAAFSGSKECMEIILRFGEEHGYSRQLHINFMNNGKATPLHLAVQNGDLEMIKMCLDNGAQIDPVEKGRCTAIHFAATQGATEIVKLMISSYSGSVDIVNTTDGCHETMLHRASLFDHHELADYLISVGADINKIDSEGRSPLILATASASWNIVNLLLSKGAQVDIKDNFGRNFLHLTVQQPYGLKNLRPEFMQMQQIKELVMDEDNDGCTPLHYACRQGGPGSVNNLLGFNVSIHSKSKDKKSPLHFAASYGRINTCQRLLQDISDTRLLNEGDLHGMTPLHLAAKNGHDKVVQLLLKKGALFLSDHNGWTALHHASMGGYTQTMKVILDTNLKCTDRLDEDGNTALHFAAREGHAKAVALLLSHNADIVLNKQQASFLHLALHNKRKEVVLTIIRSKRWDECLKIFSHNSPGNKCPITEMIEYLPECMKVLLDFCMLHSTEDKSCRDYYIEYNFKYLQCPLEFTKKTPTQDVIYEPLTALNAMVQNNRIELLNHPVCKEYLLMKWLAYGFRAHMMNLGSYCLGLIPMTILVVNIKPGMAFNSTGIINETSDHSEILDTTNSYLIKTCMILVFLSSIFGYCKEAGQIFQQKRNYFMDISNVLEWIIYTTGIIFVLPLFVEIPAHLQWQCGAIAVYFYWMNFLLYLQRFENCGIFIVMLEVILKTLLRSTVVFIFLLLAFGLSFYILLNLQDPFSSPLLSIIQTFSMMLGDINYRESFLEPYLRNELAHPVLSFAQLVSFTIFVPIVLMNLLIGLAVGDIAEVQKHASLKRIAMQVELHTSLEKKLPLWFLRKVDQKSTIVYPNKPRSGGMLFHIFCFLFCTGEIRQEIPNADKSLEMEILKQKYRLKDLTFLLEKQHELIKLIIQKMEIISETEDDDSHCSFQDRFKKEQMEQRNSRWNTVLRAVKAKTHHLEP

| SMILES | IC50 [1] [nM] | IC50 [2] [nM] | IC50 [3] [nM] | IC50 [4] [nM] |
| --- | --- | --- | --- | --- |
| Cc1nc(N2CCN(C)CC2)n2ncn(Cc3nc([C@@H]4CO[C@@H](c5ccc(Cl)cc5)C4)no3)c(=O)c12 (racemic) [Example 92, 5-methyl-7-(4-methylpiperazin-1-yl)-3-[[3-[rac-(3R,5R)-5-(4-chlorophenyl)tetrahydro-furan-3-yl]-1,2,4-oxadiazol-5-yl]methyl]imidazo[5,1-f][1,2,4]triazin-4-one] | 170 | – | – | – |
| Cc1nc(Br)n2ncn(Cc3nc([C@@H]4CO[C@@H](c5ccc(F)cc5)C4)no3)c(=O)c12 (racemic) [Example 90, 7-bromo-5-methyl-3-[[3-[rac-(3R,5R)-5-(4-fluorophenyl)tetrahydro-furan-3-yl]-1,2,4-oxadiazol-5-yl]methyl] imidazo[5,1-f][1,2,4] triazin-4-one] | 33 | – | – | – |
| Cc1nc2nc(N)n(C)c2c(=O)n1Cc1nc([C@@H]2CO[C@@H](c3ccc(Cl)cc3)C2)no1 (racemic) [Example 113, 8-amino-2,7-dimethyl-1-[[3-[rac-(3R,5R)-5-(4-chlorophenyl)tetrahydro-furan-3-yl]-1,2,4-oxadiazol-5-yl]methyl] purin-6-one] | 14 | – | – | 123 |
| Cn1cnc2ncn(Cc3nc([C@@H]4CO[C@@H](c5ccc(F)c(F)c5)C4)no3)c(=O)c21 [Example 18, 1-((3-((3R,5R)-5-(3,4-difluorophenyl)tetra-hydrofuran-3-yl)-1,2,4-oxadiazol-5-yl)methyl)-7-methyl-1,7-dihydro-6H-purin-6-one] | – | 173 | 130 | – |
| Cn1cnc2ncn(Cc3nc([C@@H]4CO[C@@H](c5ccc(F)c(Cl)c5)C4)no3)c(=O)c21 [Example 35, 1-((3-((3R,5R)-5-(3-chloro-4-fluorophenyl)tetrahydro-furan-3-yl)-1,2,4-oxadiazol-5-yl)methyl)-7-methyl-1,7-dihydro-6H-purin-6-one] | – | 16.4 | 3.6 | – |
| Cn1cnc2ncn(Cc3nc([C@@H]4CO[C@@H](c5ccc(Cl)c(F)c5)C4)no3)c(=O)c21 [Example 32, 1-((3-((3R,5R)-5-(4-chloro-3-fluorophenyl)tetrahydro-furan-3-yl)-1,2,4-oxadiazol-5-yl)methyl)-7-methyl-1,7-dihydro-6H-purin-6-one] | – | 7.88 | 2 | – |
| Cn1cnc2ncn(Cc3nc([C@@H]4CO[C@@H](c5ccccc5)C4)no3)c(=O)c21 [Example 13, 7-methyl-1-((3-((3R,5R)-5-phenyltetrahydrofuran-3-yl)-1,2,4-oxadiazol-5-yl)methyl)-1,7-dihydro-6H-purin-6-one] | – | 82.3 | 33 | – |
| Cn1cnc2ncn(Cc3nc([C@@H]4CO[C@@H](c5cccc(Cl)c5)C4)no3)c(=O)c21 [Example 17, 1-((3-((3R,5R)-5-(3-chlorophenyl)tetrahydro-furan-3-yl)-1,2,4-oxadiazol-5-yl)methyl)-7-methyl-1,7-dihydro-6H-purin-6-one] | – | 29.5 | 14 | – |
| Cc1ccnc2cnn(Cc3nc([C@@H]4CO[C@@H](c5ccc(F)cc5)C4)no3)c(=O)c12 [Example 104, 6-[[3-[(3R,5R)-5-(4-fluorophenyl)tetrahydro-furan-3-yl]-1,2,4-oxadiazol-5-yl]methyl]-4-methyl-pyrido[2,3-d] pyridazin-5-one] | – | 7.2 | 6.7 | – |
| Nc1nc2ncsc2c(=O)n1Cc1nc([C@@H]2CO[C@@H](c3ccc(F)cc3)C2)no1 (racemic) [Example 154, 5-amino-6-[[3-[rac-(3R,5R)-5-(4-fluorophenyl)tetrahydro-furan-3-yl]-1,2,4-oxadiazol-5-yl]methyl]thiazolo[4,5-d]pyrimidin-7-one] | 2.3 | – | – | – |
| Cn1cnc2ncn(Cc3nc([C@@H]4CO[C@@H](c5cccc(F)c5)C4)no3)c(=O)c21 [Example 10, 1-((3-((3R,5R)-5-(3-fluorophenyl)tetra-hydrofuran-3-yl)-1,2,4-oxadiazol-5-yl)methyl)-7-methyl-1,7-dihydro-6H-purin-6-one] | – | 27.4 | 17 | – |
| Cn1cnc2nc(N)n(Cc3nc([C@@H]4CO[C@@H](c5ccc(F)cc5)C4)no3)c(=O)c21 [Example 144, 2-amino-1-((3-((3R,5R)-5-(4-fluorophenyl)tetrahydro-furan-3-yl)-1,2,4-oxadiazol-5-yl)methyl)-7-methyl-1,7-dihydro-6H-purin-6-one] | – | 56.9 | 6.6 | – |

Second part, the molecule after the results:

| IC50 [1] [nM] | IC50 [2] [nM] | IC50 [3] [nM] | IC50 [4] [nM] | SMILES |
| --- | --- | --- | --- | --- |
| – | 142 | 4.6 | – | Cc1ncn2nc(N)n(Cc3nc([C@@H]4CO[C@@H](c5ccc(Cl)cc5)C4)no3)c(=O)c12 [Example 84, 2-amino-3-((3-((3R,5R)-5-(4-chlorophenyl)tetra-hydrofuran-3-yl)-1,2,4-oxadiazol-5-yl)methyl)-5-methylimidazo[5,1-f] [1,2,4]triazin-4(3H)-one] |
| – | 15.6 | 12 | – | Nc1ccc2c(=O)n(Cc3nc([C@@H]4CO[C@@H](c5ccc(F)cc5)C4)no3)cnc2n1 [Example 60, 7-amino-3-((3-((3R,5R)-5-(4-fluorophenyl)tetrahydrofuran-3-yl)-1,2,4-oxadiazol-5-yl)methyl)pyrido[2,3-d] pyrimidin-4(3H)-one] |
| – | 19.3 | 7.8 | – | O=c1c2ccncc2ncn1Cc1nc([C@@H]2CO[C@@H](c3ccc(Cl)cc3)C2)no1 [Example 45, 3-((3-((3R,5R)-5-(4-chlorophenyl)tetrahydro-furan-3-yl)-1,2,4-oxadiazol-5-yl)methyl)pyrido[3,4-d] pyrimidin-4(3H)-one] |
| 1.8 | – | – | 6.35 | Cn1c(=O)oc2ncn(Cc3nc([C@@H]4CO[C@@H](c5ccc(Cl)cc5)C4)no3)c(=O)c21 (racemic) [Example 153, 1-methyl-6-[[3-[rac-(3R,5R)-5-(4-chlorophenyl)tetrahydro-furan-3-yl]-1,2,4-oxadiazol-5-yl]methyl] oxazolo[5,4-d] pyrimidine-2,7-dione] |
| 33 | – | – | – | Cc1nn(C)c2ncn(Cc3nc([C@@H]4CO[C@@H](c5ccc(Cl)cc5)C4)no3)c(=O)c12 (racemic) [Example 96, 1,3-dimethyl-5-[[3-[rac-(3R,5R)-5-(4-chlorophenyl)tetrahydro-furan-3-yl]-1,2,4-oxadiazol-5-yl]methyl] pyrazolo[3,4-d]pyrimidin-4-one] |
| – | 40.1 | 29 | – | Cn1c(NCc2ccccn2)nc2ncn(Cc3nc([C@@H]4CO[C@@H](c5ccc(Cl)cc5)C4)no3)c(=O)c21 [Example 51] |
| 15 | – | – | – | O=c1c2c(Cl)ccnc2ncn1Cc1nc([C@@H]2CO[C@@H](c3ccc(F)cc3)C2)no1 (racemic) [Example 95, 5-chloro-3-[[3-[rac-(3R,5R)-5-(4-fluorophenyl)tetrahydrofuran-3-yl]-1,2,4-oxadiazol-5-yl]methyl] pyrido[2,3-d]pyrimidin-4-one] |
| – | 38.8 | 18 | – | Cn1cnc2cnn(Cc3nc([C@@H]4CO[C@@H](c5ccc(Cl)cc5)C4)no3)c(=O)c21 [Example 57, 5-((3-((3R,5R)-5-(4-chlorophenyl)tetrahydro-furan-3-yl)-1,2,4-oxadiazol-5-yl)methyl)-3-methyl-3,5-dihydro-4H-imidazo[4,5-d] pyridazin-4-one] |
| – | 126 | 17 | – | Cn1cnc2nc(N)n(Cc3nc([C@@H]4CO[C@@H](c5ccc(Cl)cc5)C4)no3)c2c1=O [Example 123, 8-amino-7-((3-((3R,5R)-5-(4-chlorophenyl)tetrahydro-furan-3-yl)-1,2,4-oxadiazol-5-yl)methyl)-1-methyl-1,7-dihydro-6H-purin-6-one] |
| – | 20 | 6 | – | Cc1ccnc2c1c(=O)nc(N)n2Cc1nc([C@@H]2CO[C@@H](c3ccc(Cl)cc3)C2)no1 [Example 134, 2-amino-1-((3-((3R,5R)-5-(4-chlorophenyl)tetrahydro-furan-3-yl)-1,2,4-oxadiazol-5-yl)methyl)-5-methylpyrido[2,3-d] pyrimidin-4(1H)-one] |
| – | – | 11 | – | Cn1c(C(F)F)nc2ncn(Cc3nc([C@@H]4CO[C@@H](c5ccc(Cl)cc5)C4)no3)c(=O)c21 [Example 76, 1-((3-((3R,5R)-5-(4-chlorophenyl)tetrahydro-furan-3-yl)-1,2,4-oxadiazol-5-yl)methyl)-8-(difluoro-methyl)-7-methyl-1,7-dihydro-6H-purin-6-one] |
| – | – | 66 | – | NC(=O)c1ccc2c(=O)n(Cc3nc([C@@H]4CO[C@@H](c5ccc(Cl)cc5)C4)no3)cnc2n1 [Example 77, 3-((3-((3R,5R)-5-(4-chlorophenyl)tetrahydro-furan-3-yl)-1,2,4-oxadiazol-5-yl)methyl)-4-oxo-3,4-dihydropyrido[2,3-d] pyrimidine-7-carboxamide] |
| – | 10.4 | 1.5 | – | Cc1ccnc2nc(N)n(Cc3nc([C@@H]4CO[C@@H](c5ccc(Cl)cc5)C4)no3)c(=O)c12 [Example 135, 2-amino-3-((3-((3R,5R)-5-(4-chlorophenyl)tetrahydro-furan-3-yl)-1,2,4-oxadiazol-5-yl)methyl)-5-methylpyrido[2,3-d] pyrimidin-4(3H)-one] |
| – | 8.47 | 1.6 | – | Cc1cnn2ncn(Cc3nc([C@@H]4CO[C@@H](c5ccc(F)cc5)C4)no3)c(=O)c12 [Example 66, 3-((3-((3R,5R)-5-(4-fluorophenyl)tetrahydro-furan-3-yl)-1,2,4-oxadiazol-5-yl)methyl)-5-methylpyrazolo[5,1-f] [1,2,4]triazin-4(3H)-one] |
| – | 7.05 | 3.6 | – | Cc1ccnc2ncn(Cc3nc([C@@H]4CO[C@@H](c5ccc(F)cc5)C4)no3)c(=O)c12 [Example 20, 3-((3-((3R,5R)-5-(4-fluorophenyl)tetrahydro-furan-3-yl)-1,2,4-oxadiazol-5-yl)methyl)-5-methylpyrido[2,3-d]pyrimidin-4(3H)-one] |
